Each structure is given as a SMILES string. Entries after “also recorded” stand apart in the source; their conditions may differ. Like-named read-outs stand apart in the source and are kept apart here. A value given as a limit tells only on which side of the number the result lay.

The test system of series [1] is thymocyte and lymphocyte. As to conditions: in vitro; cited from earlier work.
Series [2] concerns neopterin. Description: Phase 2a dose ranging study of SCV-07: plasma biomarker neopterin. In kind it is in vivo, human. As to conditions: Cohort 3, 1.0 mg/kg (interim); single responding subject. The text has this:
(§1) Here we describe interim results from a phase 2a, proof of principle, multicenter, randomized, controlled, single-blind dose ranging study, which is evaluating the safety and antiviral effect of SCV-07 in non-cirrhotic subjects with genotype 1 chronic HCV infection. Subjects enrolled in the study must have relapsed to previous treatment with PEGylated interferon and ribavirin; therefore any change in HCV viral load of greater than 0.5 log could be considered a significant response.
(§2) Subjects are treated with 7 daily injections of SCV-07 (8 subjects per cohort) or saline (2 per cohort). […] Due to this apparent late response, a 30-day follow up visit was added for Cohort 3. Of the 4 subjects in this Cohort who have reached the 30-day visit, one has responded with a 1.2-log drop in HCV along with an increase in neopterin (see Table1).
A plasma concentration of neopterin above 10 nmol/L represents a “stimulated” immune system. […] Increased levels of neopterin also are correlated with increased sustained viral responses against HCV, and so is very strong evidence for the use of SCV-07 in this disease. The timing of the increase is also of interest.

For series [3], the system named is herpes virus HSV-2. As to conditions: guinea pigs infected with herpes virus HSV-2; cited from earlier work.
In series [4] the test system is sheep red blood cells. As to conditions: immunization with sheep red blood cells; cited from earlier work.
Series [5] deals with STAT-3. As to conditions: cited from earlier work.
Series [6] relates to Th1 cytokines IFN-g and IL-2, Th2 cytokines IL-4 and IL-10. As to conditions: cited from earlier work.
The test system of series [7] is 5-FU-immune-suppressed animals. As to conditions: cited from earlier work.
A short description of series [8]: Phase 2a dose ranging study of SCV-07: safety and tolerability. In kind it is in vivo, human.
From the text: as §1, §2
Further clinical investigation into longer treatment duration or addition to other anti-viral agents appears warranted.

Series [9] concerns HCV. The series is described as follows: Combination treatment of hepatitis C patients, Examples 2-4. As to conditions: Example 4: 0.1-2.0 mg/kg/day with STAT-C and/or ribavirin and/or pegylated interferon alpha-2b or alpha-2a, up to 48 weeks. In kind it is in vivo, human. The text has this:
Treatment, as in the examples above, results in achieving a sustained virological response (SVR) (which is accepted as cure and used as the efficacy endpoint for FDA approval), of 65-75%. This compares favorably with the current SOC SVR of 45-50%. This improved SVR is achieved in a regimen that has much less toxicity when compared to SOC (interferon sparing).

Series [10] relates to Pichinde virus. As to conditions: Pichinde virus in guinea pigs; cited from earlier work.
Series [11] deals with Cottontail papilloma virus. As to conditions: Cottontail papilloma virus in rabbits; cited from earlier work.
The test system of series [12] is bone marrow cells. As to conditions: cited from earlier work.
Series [13] relates to spleen lymphocytes. As to conditions: cited from earlier work.
In series [14] the test system is genotype 1 chronic HCV infection. Description: Phase 2a dose ranging study of SCV-07: HCV viral load. In kind it is in vivo, human.
From the text: as §1, §2

The test system of series [15] is HCV genotype 1. As to conditions: 400 mg thrice daily, 14 days monotherapy, nonresponders to pegylated interferon alfa; cited from earlier work.
Series [16] relates to HCV genotype 1. As to conditions: 400 mg thrice daily for 14 days with pegylated interferon alfa-2b, previous nonresponders; cited from earlier work.
The subject of series [17] is HCV. As to conditions: higher doses (500-1500 mg/day); cited from earlier work.
Series [18] relates to HCV genotype 1. As to conditions: 1500-mg twice-daily, 14 days, treatment-naive; cited from earlier work.
In series [19] the test system is HCV genotype 1. As to conditions: cited from earlier work.
Series [20] relates to HCV. As to conditions: within 5 days of therapy; cited from earlier work.
In series [21] the test system is HCV. As to conditions: cited from earlier work.
[22] abbreviates: 1500 mg twice daily for 14 days.
The mark [23] stands for this setting: 3000 mg twice daily for 14 days.
Where [24] appears, read: 4500 mg twice daily for 14 days.

Regarding `N[C@H](CCC(=O)N[C@@H](Cc1c[nH]c2ccccc12)C(=O)O)C(=O)O` [SCV-07, γ-D-glutamyl-L-tryptophan], the “Con-A-induced thymocyte and lymphocyte proliferation” value in series [1] is on record as “increases”. Also, in [2], the “Neopterin (nmol/L) Day 30” value came out at 33 nmol/L. Besides, the recurrence entry in series [3] is recorded as “decreased recurrence”. Moreover, in series [4], the immunostimulatory effect entry is given as “strong immunostimulatory effect”. For the same compound, the “STAT-3 dependent signaling / STAT3 activity” value in series [5] is “inhibition; also recorded: inhibit”. Besides, in series [6], the “Th2 cytokines IL-4 and IL-10” value is listed as “decreasing”; the “production of the Th1 cytokines IFN-g and IL-2” value is “increases”. Moreover, the immunostimulatory effect entry in series [7] is given as “strong immunostimulatory effect”. Moreover, in series [8] (all 3 dose groups), the SAEs reported entry is reported as “No SAEs were reported”, the “discontinuation of treatment due to AEs” value is “no subject had to discontinue treatment due to AEs” and the tolerability result is “well tolerated”. In addition, in series [8] (any of the subjects), the “changes in ALT from baseline” value is “No significant changes”. Further, in series [9], the “response against HCV” value was “improved response”. The survival result in series [10] is listed as “increased survival”. Moreover, the survival result in [11] was “increased survival”. Further, the “expression of Thy-1.2 on bone marrow cells” value in series [12] is reported as “stimulates expression”. In addition, the “Con-A-induced interleukin-2 (IL-2) production and IL-2 receptor expression by spleen lymphocytes” value in [13] was “increases”. For the same compound, the “HCV viral load response” value in series [14] (Cohort 1, 0.01 mg/kg) is “no responses”. Also, the “subjects with decrease in viral load and increase in neopterin” value in series [14] (Cohort 2, 0.10 mg/kg, day 14 follow up visit) stood at 2 subjects. Besides, the “HCV viral load (log10 decrease) Day 30” value in series [14] (Cohort 3, 1.0 mg/kg (interim), 7 daily injections, single responding subject, 30-day visit) is listed as 1.2 log10. Moreover, the “drop in HCV” value in series [14] (Cohort 3, one of 4 subjects at the 30-day visit) was 1.2 log.
For `CC(C)(C)NC(=O)N[C@H](C(=O)N1C[C@H]2[C@@H]([C@H]1C(=O)NC(CC1CCC1)C(=O)C(N)=O)C2(C)C)C(C)(C)C` (stereo partly shown) [SCH503034], in series [15], the “drop in HCV RNA from the baseline value” is reported as “approximately 2 log”. Also, the “reduction in HCV RNA” value in [16] is recorded as 2.88 log.
`CNC(=O)c1c(-c2ccc(F)cc2)oc2cc(N(CCO)S(C)(=O)=O)c(C3CC3)cc12` [HCV-796]: the “drop in the HCV RNA viral load” value in [17] is recorded as around 1.2 log.
With `CC(C)C(=O)OC[C@@]1(N=[N+]=[N-])O[C@@H](n2ccc(N)nc2=O)[C@H](OC(=O)C(C)C)[C@@H]1OC(=O)C(C)C` [R1626], the “reduction in HCV RNA” value in series [18] is reported as “approximately 1.2 log”. For the same compound, the “Mean HCV viral reduction” value is given as 0.3 log 10 in series [19] (500 mg twice daily for 14 days), 1.2 log 10 in series [19] (setting [22]), 2.6 log 10 in series [19] (setting [23]) and 3.7 log 10 in [19] (setting [24]). For the same compound, the “median HCV viral reduction” value was 0.2 log 10 in series [19] (500 mg twice daily for 14 days), 0.8 log 10 in series [19] (setting [22]), 2.7 log 10 in [19] (setting [23]) and 4.1 log 10 in series [19] (setting [24]).
Take `CCCCCOc1ccc(NC(=S)NC(=O)c2cccnc2)cc1C(F)(F)F` [ACH-806]: the “drop in HCV RNA” value in series [20] is on record as 2.38 log.
Regarding `COc1ccc2c(O[C@@H]3C[C@H]4C(=O)N[C@]5(C(=O)O)C[C@H]5/C=C\CCCCC[C@H](NC(=O)OC5CCCC5)C(=O)N4C3)cc(-c3csc(NC(C)C)n3)nc2c1` [BILN-2061], in series [21] (HCV genotype 1), the “antiviral activity, HCV genotype 1” value is reported as “potent antiviral activity”. In addition, the “virologic response, HCV genotype 2 and 3 patients” value in series [21] (HCV genotype 2 and 3) is “less pronounced and more variable”. Moreover, the “time of viral load reduction” value in [21] (phase 1) is at most 48 h.

The values above are taken from US20110200558A1, “Treatment or Prevention of Hepatitis C with Immunomodulator Compounds” (priority 2008, published 2011).
